Drawing on ChEMBL document CHEMBL5150066, “Synthesis of estrone selenocyanate Compounds, anti-tumor activity evaluation and Structure-activity relationship analysis” (Bioorg Med Chem, 2022), this text covers IC50 and selectivity ratio for 20 compounds.

As usually defined, the IC50 is the concentration needed to halve the response being measured.

Some results are limits rather than exact numbers.

In one data set the test system is HeLa. Description: Antiproliferative activity against human HeLa cells assessed as inhibition of cell growth incubated for 72 hrs by MTT assay. The format is functional, cell-based.
A further data set concerns SK-OV-3. In words: Antiproliferative activity against human SK-OV-3 cells assessed as inhibition of cell growth incubated for 72 hrs by MTT assay. The format is functional, cell-based. The conditions noted are these: SK-OV-3, 72 h. Background: Formazan colour is commonly taken as a measure of viable cells.
Data set [1] in a line: Cytotoxicity against HEK293T cells assessed as inhibition of cell growth incubated for 72 hrs by MTT assay. The format is toxicity, cell-based, HEK-293T. The settings on record: human.
The test system of the next data set is MCF7. In words: Antiproliferative activity against human MCF7 cells assessed as inhibition of cell growth incubated for 72 hrs by MTT assay. The settings on record: MCF7, 72 h. The format is functional, cell-based.
In the next data set the test system is HepG2. In words: Antiproliferative activity against human HepG2 cells assessed as inhibition of cell growth incubated for 72 hrs by MTT assay. The format is functional, cell-based. The settings on record: HepG2, 72 h.
Another data set concerns T47D. In words: Antiproliferative activity against human T47D cells assessed as inhibition of cell growth incubated for 72 hrs by MTT assay. The format is functional, cell-based.
Data set [2] is described as follows: Selectivity index, ratio of IC50 for cytotoxicity against HEK293T cells to IC50 for antiproliferative activity against human HepG2 cells. The conditions noted are these: HEK293T cells versus HepG2 cells, read-out: Ratio IC50. The format is toxicity, cell-based.
Data set [3] can be described thus: Potency index, ratio of test compound IC50 to 2-methoxyestradiol IC50 for cytotoxicity against human HEK293T cells assessed as inhibition of cell growth incubated for 72 hrs by MTT assay. The format is toxicity, cell-based, HEK-293T. The conditions noted are these: read-out: Ratio IC50.

In the case of `COc1ccc2c(c1)CC[C@@H]1[C@@H]2CC[C@]2(C)C(OC(=O)C[Se]C#N)CC[C@@H]12` (stereo partly specified), the IC50 in the data set on HeLa is 56.8 µM; with SK-OV-3, 52.4 µM; in the data set with MCF7, 88.3 µM; in the data set with HepG2, 61.1 µM; in the data set on T47D it was 41.5 µM. The IC50 at 72 h in data set [1] was 45.2 µM.

On to `COc1ccc2c(c1)CC[C@@H]1[C@@H]2CC[C@]2(C)/C(=N/OC(=O)C[Se]C#N)CC[C@@H]12`, for which the IC50 in the data set on HeLa came to 26.3 µM; in the data set with SK-OV-3 it was 53.4 µM; with MCF7, 18.8 µM; in the data set on HepG2, 62.5 µM; in the data set on T47D it was 24.2 µM. The IC50 at 72 h in data set [1] worked out at 25.2 µM.

On to `COc1cc2c(cc1O)CC[C@@H]1[C@@H]2CC[C@]2(C)[C@@H](O)CC[C@@H]12` [2-METHOXYESTRADIOL], for which the IC50 in the data set with HeLa is 8.6 µM; in the data set on SK-OV-3, 16.5 µM; with MCF7, above 70 µM; in the data set with HepG2, 2.3 µM; with T47D, 25.2 µM. For the same compound, the IC50 at 72 h in data set [1] was determined as 4.6 µM.

Turning to `C[C@]12CC[C@@H]3c4ccc(O)cc4CC[C@H]3[C@@H]1CCC2NC(=O)c1ccc(C[Se]C#N)cc1` (stereo partly specified), the IC50 in the data set on HeLa worked out at 13.7 µM; in the data set on SK-OV-3 it was 27.7 µM; with MCF7 it was 17.2 µM; with HepG2, 16.1 µM; with T47D, 25.1 µM. The IC50 at 72 h in data set [1] is 13.4 µM.

Consider `C[C@]12CC[C@@H]3c4ccc(OCCCC[Se]C#N)cc4CC[C@H]3[C@@H]1CCC2=O`, for which the IC50 in the data set with HeLa is 14 µM; in the data set with SK-OV-3, 49.7 µM; in the data set on MCF7, 41.1 µM; in the data set with HepG2 it was above 100 µM; in the data set with T47D it was 75.7 µM. For the same compound, the IC50 at 72 h in data set [1] amounted to 42.8 µM.

As to `COc1ccc2c(c1)CC[C@@H]1[C@@H]2CC[C@]2(C)/C(=N/OC(=O)c3ccc(C[Se]C#N)cc3)CC[C@@H]12`, the half-inhibitory concentration (IC50) was 21 µM with HeLa; 69 µM in the data set on SK-OV-3; 3.9 µM with MCF7; 80.4 µM in the data set with HepG2; 24.2 µM in the data set on T47D. The IC50 at 72 h in data set [1] was determined as 23.2 µM.

For `COc1ccc2c(c1)CC[C@@H]1[C@@H]2CC[C@]2(C)C(OC(=O)c3ccc(C[Se]C#N)cc3)CC[C@@H]12` (stereo partly specified), the 50% inhibitory concentration (IC50) was 47.5 µM with HeLa; 56.3 µM in the data set with SK-OV-3; 55.5 µM in the data set with MCF7; 35.9 µM in the data set with HepG2; above 100 µM in the data set on T47D. In addition, the IC50 at 72 h in data set [1] was 29.7 µM.

Take `C[C@]12CC[C@@H]3c4cc(N)c(O)cc4CC[C@H]3[C@@H]1CCC2=O`: the IC50 in the data set on HeLa is above 70 µM; in the data set on SK-OV-3 it was above 70 µM; in the data set on MCF7 it was above 70 µM; in the data set with HepG2, 56.3 µM; in the data set on T47D, 50.5 µM. Also, the IC50 at 72 h in data set [1] was 36.4 µM.

For `C[C@]12CC[C@@H]3c4cc(NC(=O)c5ccc(C[Se]C#N)cc5)c(O)cc4CC[C@H]3[C@@H]1CCC2=O`, the half-inhibitory concentration (IC50) stood at 26.8 µM in the data set on HeLa; 49.5 µM in the data set on SK-OV-3; 39.2 µM in the data set with MCF7; 68.9 µM in the data set with HepG2; 37.4 µM with T47D. The IC50 at 72 h in data set [1] was 27.2 µM.

In the case of `COc1ccc2c(c1)CC[C@@H]1[C@@H]2CC[C@]2(C)C(NC(=O)c3ccc(C[Se]C#N)cc3)CC[C@@H]12` (stereo partly specified), the IC50 is 9.6 µM with HeLa; 22.4 µM with SK-OV-3; 15.8 µM in the data set with MCF7; 13.8 µM in the data set with HepG2; 40.8 µM with T47D. The IC50 at 72 h in data set [1] came out at 24.6 µM.

As to `C[C@]12CC[C@@H]3c4ccc(O)cc4CC[C@H]3[C@@H]1CCC2NC(=O)C[Se]C#N` (stereo partly specified), the IC50 is 70.4 µM in the data set with HeLa; 30.5 µM with SK-OV-3; 73.4 µM with MCF7; 70.4 µM with HepG2; 73.4 µM in the data set on T47D. Besides, the IC50 at 72 h in data set [1] was found to be 25.4 µM.

`C[C@]12CC[C@@H]3c4ccc(OCCCCCCCC[Se]C#N)cc4CC[C@H]3[C@@H]1CCC2=O`: the IC50 with HeLa was found to be 5.6 µM; in the data set with SK-OV-3, 20.1 µM; in the data set on MCF7 it was 8 µM; in the data set with HepG2 it was 42.5 µM; in the data set on T47D, 59.2 µM. In addition, the IC50 at 72 h in data set [1] came out at 8.9 µM.

Consider `COc1ccc2c(c1)CC[C@@H]1[C@@H]2CC[C@]2(C)C(NC(=O)C[Se]C#N)CC[C@@H]12` (stereo partly specified), for which the IC50 was determined as 16.2 µM with HeLa; 30.6 µM with SK-OV-3; 56.1 µM in the data set on MCF7; 10.5 µM in the data set with HepG2; 75.9 µM in the data set on T47D. The IC50 at 72 h in data set [1] came to 15 µM.

`C[C@]12CC[C@@H]3c4ccc(OCCCCCCCCCCCC[Se]C#N)cc4CC[C@H]3[C@@H]1CCC2=O`: the IC50 was 18.2 µM in the data set on HeLa; 46.6 µM in the data set on SK-OV-3; 27.5 µM with MCF7; above 100 µM with HepG2; 19.7 µM with T47D. Also, the IC50 at 72 h in data set [1] is 16.5 µM.

Take `C[C@]12CC[C@@H]3c4ccc(OCC[Se]C#N)cc4CC[C@H]3[C@@H]1CCC2=O`: the concentration for half-maximal inhibition (IC50) in the data set on HeLa is 20.2 µM; with SK-OV-3, 60.3 µM; in the data set on MCF7, 52.3 µM; in the data set on HepG2 it was above 100 µM. Further, the half-maximal inhibitory concentration (IC50) at 72 h in data set [1] was found to be 51.1 µM.

For the compound `C[C@]12CC[C@@H]3c4cc(NC(=O)CCCC[Se]C#N)c(O)cc4CC[C@H]3[C@@H]1CCC2=O`, the IC50 in the data set on HeLa is 13.7 µM; with SK-OV-3, 15.6 µM; in the data set with MCF7, 17.3 µM; with HepG2, 11 µM; in the data set on T47D, 21.8 µM. The IC50 at 72 h in data set [1] came out at 18.2 µM.

Turning to `C[C@]12CC[C@@H]3c4cc(NC(=O)C[Se]C#N)c(O)cc4CC[C@H]3[C@@H]1CCC2=O`, the IC50 in the data set with HeLa was 9.4 µM; in the data set on SK-OV-3 it was 2.6 µM; in the data set on MCF7 it was 16.6 µM; in the data set with HepG2, 1 µM; in the data set with T47D it was 22.8 µM. Also, in data set [2], the selectivity ratio came out at 15. Besides, the IC50 at 72 h in data set [1] was 15.4 µM. Also, the selectivity ratio at 72 h in data set [3] is 3.

As for `C[C@]12CC[C@@H]3c4ccc(OCCC[Se]C#N)cc4CC[C@H]3[C@@H]1CCC2=O`, the IC50 with HeLa was 18.2 µM; in the data set on SK-OV-3, 54.6 µM; in the data set with MCF7 it was 48.1 µM; in the data set on HepG2 it was above 100 µM; in the data set with T47D, above 100 µM. Moreover, the half-inhibitory concentration (IC50) at 72 h in data set [1] worked out at 43.9 µM.

As for `C[C@]12CC[C@@H]3c4cc(NC(=O)CCCCCCCCC[Se]C#N)c(O)cc4CC[C@H]3[C@@H]1CCC2=O`, the IC50 turned out to be 13.7 µM in the data set with HeLa; 14.4 µM in the data set with SK-OV-3; 9.3 µM in the data set on MCF7; 31 µM with HepG2; 24.6 µM in the data set on T47D. In data set [1], the IC50 at 72 h was found to be 17.2 µM.

On to `C[C@]12CC[C@H](O)CC1=CC[C@@H]1[C@@H]2CC[C@]2(C)C(c3cccnc3)=CC[C@@H]12` [ABIRATERONE], for which the IC50 in the data set with HeLa is 16.9 µM; in the data set with SK-OV-3 it was 59.5 µM; in the data set on MCF7 it was 38.2 µM; in the data set on HepG2 it was 59.8 µM; in the data set on T47D, 34.7 µM. In addition, the IC50 at 72 h in data set [1] is above 100 µM.
